Reference: BigSolDB 2.1

CCCCOC(=O)c1ccc(O)cc1
solubility (mole fraction)
Settings	281.05 K	291.05 K	301.05 K	311.05 K	321.05 K
in acetonitrile	0.275	0.449	0.61	0.753	0.857
in ethyl acetate	0.424	0.501	0.591	0.688	0.781
